Assay [1] in a line: Binding affinity to MEK.
Assay [2] addresses MAP kinase-activated protein kinase 2 (Homo sapiens) (UniProt P49137). Kind of assay: Binding affinity to MK2 at 10 uM.
Assay [3] concerns the target High affinity nerve growth factor receptor (Homo sapiens) (UniProt P04629). Kind of assay: Binding affinity to TrkA at 10 uM.
Assay [4] is described as follows: Binding affinity to PKC at 10 uM.
Assay [5] deals with Serine/threonine-protein kinase PAK 4 (Homo sapiens) (UniProt O96013). The assay can be described thus: Binding affinity to PAK4 at 10 uM.
Chain of Serine/threonine-protein kinase PAK 4 (Homo sapiens) (O96013 whole entry, looked up): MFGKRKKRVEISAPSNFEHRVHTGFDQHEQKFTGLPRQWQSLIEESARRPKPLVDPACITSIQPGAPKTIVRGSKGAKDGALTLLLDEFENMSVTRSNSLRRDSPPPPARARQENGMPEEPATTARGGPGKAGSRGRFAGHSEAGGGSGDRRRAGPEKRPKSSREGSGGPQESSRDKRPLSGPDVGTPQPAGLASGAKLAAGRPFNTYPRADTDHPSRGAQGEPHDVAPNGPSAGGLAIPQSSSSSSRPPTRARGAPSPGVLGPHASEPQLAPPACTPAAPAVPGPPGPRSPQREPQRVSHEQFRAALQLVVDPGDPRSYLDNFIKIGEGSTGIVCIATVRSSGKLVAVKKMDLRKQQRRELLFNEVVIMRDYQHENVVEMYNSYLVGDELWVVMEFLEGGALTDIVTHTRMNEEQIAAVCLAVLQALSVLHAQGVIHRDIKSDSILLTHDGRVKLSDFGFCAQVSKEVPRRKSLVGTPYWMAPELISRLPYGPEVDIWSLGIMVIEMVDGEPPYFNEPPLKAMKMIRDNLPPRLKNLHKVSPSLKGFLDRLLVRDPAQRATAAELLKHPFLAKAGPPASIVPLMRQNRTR
The nature of assay [6]: Binding affinity to GSK3 at 10 uM.
A short description of assay [7]: Binding affinity to p38 at 10 uM.
For assay [8], the target named is T1, Serine/threonine-protein kinase Sgk1 (Homo sapiens) (UniProt O00141).
T1 sequence (whole entry): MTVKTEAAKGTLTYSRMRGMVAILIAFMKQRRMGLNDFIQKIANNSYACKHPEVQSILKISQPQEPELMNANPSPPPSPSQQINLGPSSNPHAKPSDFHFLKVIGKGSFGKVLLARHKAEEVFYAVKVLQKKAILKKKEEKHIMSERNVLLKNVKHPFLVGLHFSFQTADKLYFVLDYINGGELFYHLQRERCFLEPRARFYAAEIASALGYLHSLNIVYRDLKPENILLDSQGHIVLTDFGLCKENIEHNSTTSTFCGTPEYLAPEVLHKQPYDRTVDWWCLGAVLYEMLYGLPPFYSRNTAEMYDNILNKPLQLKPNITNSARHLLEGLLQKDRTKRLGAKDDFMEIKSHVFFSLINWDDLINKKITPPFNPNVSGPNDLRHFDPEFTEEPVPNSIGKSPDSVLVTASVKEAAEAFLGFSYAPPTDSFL
Kind of assay: Binding affinity to SGK at 10 uM.

Assay [9] is described as follows: Binding affinity to NEK at 10 uM.
Assay [10] has as its target T2, Ephrin type-A receptor 2 (Homo sapiens, UniProt P29317). The assay can be described thus: Binding affinity to EPHA2 at 10 uM.
Assay [11] concerns the target T3, Aurora kinase A (Homo sapiens) (UniProt O14965).
T3 sequence (whole entry): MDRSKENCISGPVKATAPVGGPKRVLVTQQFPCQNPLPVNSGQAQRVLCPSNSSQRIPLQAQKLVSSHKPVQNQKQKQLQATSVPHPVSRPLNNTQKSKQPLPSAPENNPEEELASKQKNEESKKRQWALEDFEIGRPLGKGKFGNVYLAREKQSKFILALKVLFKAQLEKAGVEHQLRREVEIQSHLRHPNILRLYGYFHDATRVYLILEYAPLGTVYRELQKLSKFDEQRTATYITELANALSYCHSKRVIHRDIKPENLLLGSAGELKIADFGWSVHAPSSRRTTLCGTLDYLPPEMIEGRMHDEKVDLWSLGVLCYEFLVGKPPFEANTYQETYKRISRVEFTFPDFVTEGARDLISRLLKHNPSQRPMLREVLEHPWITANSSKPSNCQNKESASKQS
Kind of assay: Binding affinity to Aurora A at 10 uM.

The target in assay [12] is Protein kinase C beta type (Homo sapiens, UniProt P05771). Kind of assay: Binding affinity to PKC beta2.
Chain of Protein kinase C beta type (P05771 whole entry): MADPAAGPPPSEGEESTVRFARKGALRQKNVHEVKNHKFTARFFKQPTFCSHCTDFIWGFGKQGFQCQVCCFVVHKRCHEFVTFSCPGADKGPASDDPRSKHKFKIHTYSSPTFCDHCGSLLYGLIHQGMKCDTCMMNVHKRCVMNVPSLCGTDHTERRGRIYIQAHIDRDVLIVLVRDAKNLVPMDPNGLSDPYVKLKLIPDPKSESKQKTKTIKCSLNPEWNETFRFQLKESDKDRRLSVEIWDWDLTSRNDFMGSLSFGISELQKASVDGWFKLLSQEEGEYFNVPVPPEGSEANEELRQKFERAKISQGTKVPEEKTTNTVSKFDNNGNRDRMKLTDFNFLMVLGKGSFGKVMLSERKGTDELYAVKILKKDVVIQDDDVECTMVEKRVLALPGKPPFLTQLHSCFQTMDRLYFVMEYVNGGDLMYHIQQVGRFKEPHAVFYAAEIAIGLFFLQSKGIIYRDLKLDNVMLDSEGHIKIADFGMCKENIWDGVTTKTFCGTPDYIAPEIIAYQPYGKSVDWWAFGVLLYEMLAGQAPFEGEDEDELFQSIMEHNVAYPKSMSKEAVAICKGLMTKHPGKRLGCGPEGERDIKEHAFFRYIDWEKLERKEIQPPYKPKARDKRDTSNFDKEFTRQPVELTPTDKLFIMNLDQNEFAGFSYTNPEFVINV
Assay [13] concerns the target Vascular endothelial growth factor receptor 2 (Homo sapiens, UniProt P35968). Kind of assay: Binding affinity to VEGFR2.
The target of assay [14] is T2, Ephrin type-A receptor 2. The assay can be described thus: Binding affinity to ECK.
Assay [15] in a line: Binding affinity to p38.
For assay [16], the target named is Proto-oncogene tyrosine-protein kinase Src (Homo sapiens, UniProt P12931). Kind of assay: Binding affinity to SRC.
Chain of Proto-oncogene tyrosine-protein kinase Src (P12931 2-536 limits assumed): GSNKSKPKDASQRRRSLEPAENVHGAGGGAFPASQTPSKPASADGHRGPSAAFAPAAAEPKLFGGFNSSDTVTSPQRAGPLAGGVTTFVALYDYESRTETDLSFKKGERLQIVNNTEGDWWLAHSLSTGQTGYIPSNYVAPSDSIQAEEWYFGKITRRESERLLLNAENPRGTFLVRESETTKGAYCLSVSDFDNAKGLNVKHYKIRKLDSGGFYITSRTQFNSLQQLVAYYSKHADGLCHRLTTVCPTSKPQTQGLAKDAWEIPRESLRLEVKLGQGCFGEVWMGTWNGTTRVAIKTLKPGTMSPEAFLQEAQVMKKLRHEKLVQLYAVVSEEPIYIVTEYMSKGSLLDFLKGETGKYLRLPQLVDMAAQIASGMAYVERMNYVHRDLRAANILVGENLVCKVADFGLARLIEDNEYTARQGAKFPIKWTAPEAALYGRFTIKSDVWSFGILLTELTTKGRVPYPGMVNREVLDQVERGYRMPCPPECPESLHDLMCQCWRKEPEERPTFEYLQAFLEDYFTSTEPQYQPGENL
Assay [17] has as its target T4, Serine/threonine-protein kinase 3 (Homo sapiens, UniProt Q13188).
T4 sequence (Q13188 whole entry): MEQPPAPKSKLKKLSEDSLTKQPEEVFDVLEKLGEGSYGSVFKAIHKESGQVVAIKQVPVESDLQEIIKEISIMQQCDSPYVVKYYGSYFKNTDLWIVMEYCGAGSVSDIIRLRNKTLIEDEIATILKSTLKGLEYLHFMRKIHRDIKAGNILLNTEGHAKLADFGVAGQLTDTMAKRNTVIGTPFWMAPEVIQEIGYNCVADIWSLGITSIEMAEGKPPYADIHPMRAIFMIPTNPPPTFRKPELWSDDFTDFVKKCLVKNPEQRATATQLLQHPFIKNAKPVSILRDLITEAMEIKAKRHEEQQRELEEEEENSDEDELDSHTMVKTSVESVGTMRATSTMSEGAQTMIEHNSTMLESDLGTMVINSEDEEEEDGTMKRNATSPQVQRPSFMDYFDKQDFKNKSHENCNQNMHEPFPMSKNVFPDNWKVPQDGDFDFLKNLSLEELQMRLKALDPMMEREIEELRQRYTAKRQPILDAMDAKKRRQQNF

The target of assay [18] is Dual specificity protein kinase CLK1 (Homo sapiens, UniProt P49759). The assay can be described thus: Binding affinity to CLK1.
In assay [19] the target is Tyrosine-protein kinase ABL1 (Homo sapiens, UniProt P00519). The assay can be described thus: Binding affinity to ABL.
Chain of Tyrosine-protein kinase ABL1 (P00519 whole entry): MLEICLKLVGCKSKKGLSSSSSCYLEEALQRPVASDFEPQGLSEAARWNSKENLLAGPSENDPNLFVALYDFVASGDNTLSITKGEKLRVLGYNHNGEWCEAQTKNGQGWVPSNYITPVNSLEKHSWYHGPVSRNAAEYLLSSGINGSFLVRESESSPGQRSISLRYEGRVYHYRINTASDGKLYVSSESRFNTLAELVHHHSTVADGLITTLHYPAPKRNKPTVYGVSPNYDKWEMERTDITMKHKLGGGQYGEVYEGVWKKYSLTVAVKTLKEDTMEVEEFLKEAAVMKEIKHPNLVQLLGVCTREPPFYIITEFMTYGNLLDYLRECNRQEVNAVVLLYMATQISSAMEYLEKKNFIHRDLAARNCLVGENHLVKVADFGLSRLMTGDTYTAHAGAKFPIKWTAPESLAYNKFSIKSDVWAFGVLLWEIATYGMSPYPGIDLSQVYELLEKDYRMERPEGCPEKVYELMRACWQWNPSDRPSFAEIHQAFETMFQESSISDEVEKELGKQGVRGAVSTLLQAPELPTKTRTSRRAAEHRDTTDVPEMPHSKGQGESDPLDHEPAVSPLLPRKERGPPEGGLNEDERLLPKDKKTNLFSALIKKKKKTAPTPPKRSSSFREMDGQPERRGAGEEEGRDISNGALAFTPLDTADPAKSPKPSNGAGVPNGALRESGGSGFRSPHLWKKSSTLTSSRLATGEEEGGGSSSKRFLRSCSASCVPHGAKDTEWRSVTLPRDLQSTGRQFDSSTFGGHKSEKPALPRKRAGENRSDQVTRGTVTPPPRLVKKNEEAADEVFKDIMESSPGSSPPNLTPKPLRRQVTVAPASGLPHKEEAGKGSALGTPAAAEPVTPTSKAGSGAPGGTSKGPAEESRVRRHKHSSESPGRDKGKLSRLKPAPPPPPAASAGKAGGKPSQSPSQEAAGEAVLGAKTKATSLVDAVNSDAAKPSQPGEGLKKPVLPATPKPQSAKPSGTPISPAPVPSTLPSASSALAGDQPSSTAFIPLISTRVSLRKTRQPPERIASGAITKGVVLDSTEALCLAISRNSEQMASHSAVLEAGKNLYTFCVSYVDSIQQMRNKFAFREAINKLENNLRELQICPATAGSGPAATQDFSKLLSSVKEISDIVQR
Assay [20] has as its target Mitogen-activated protein kinase kinase kinase 9 (Homo sapiens, UniProt P80192). Kind of assay: Binding affinity to MAP3K9.
Another assay concerns the target T5, Aurora kinase A (Homo sapiens, UniProt O14965).
T5 sequence (O14965 whole entry): T3 sequence (whole entry)
The assay can be described thus: Binding affinity to Aurora A.

The target in assay [21] is Fibroblast growth factor receptor 1 (Homo sapiens, UniProt P11362). The assay can be described thus: Binding affinity to FGFR1.
Assay [22] concerns the target Tyrosine-protein kinase BTK (Homo sapiens, UniProt Q06187).
The target of assay [23] is Tyrosine-protein kinase Lck (Homo sapiens, UniProt P06239).

As usually defined, the IC50 is the point on the concentration scale where inhibition reaches its midpoint. What is called inhibition is the change of the read-out against control, counted positive when it falls.

Chain of Tyrosine-protein kinase BTK (Q06187 whole entry): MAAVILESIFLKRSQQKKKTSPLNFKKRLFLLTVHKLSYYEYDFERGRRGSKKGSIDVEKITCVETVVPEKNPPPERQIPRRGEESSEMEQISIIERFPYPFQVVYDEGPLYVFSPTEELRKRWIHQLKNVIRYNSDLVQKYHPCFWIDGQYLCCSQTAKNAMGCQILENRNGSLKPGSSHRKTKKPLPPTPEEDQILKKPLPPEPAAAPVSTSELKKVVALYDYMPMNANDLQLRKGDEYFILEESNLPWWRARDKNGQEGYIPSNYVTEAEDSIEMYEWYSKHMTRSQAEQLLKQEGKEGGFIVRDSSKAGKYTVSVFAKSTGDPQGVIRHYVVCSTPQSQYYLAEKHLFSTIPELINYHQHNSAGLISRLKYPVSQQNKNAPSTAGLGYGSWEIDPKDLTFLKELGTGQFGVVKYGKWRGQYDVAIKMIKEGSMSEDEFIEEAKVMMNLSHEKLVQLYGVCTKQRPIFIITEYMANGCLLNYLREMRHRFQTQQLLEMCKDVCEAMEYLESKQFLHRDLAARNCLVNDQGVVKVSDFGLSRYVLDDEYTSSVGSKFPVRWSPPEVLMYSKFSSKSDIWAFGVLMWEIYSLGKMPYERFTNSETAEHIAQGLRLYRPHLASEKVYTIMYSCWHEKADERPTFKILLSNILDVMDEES
T2 sequence (P29317 whole entry): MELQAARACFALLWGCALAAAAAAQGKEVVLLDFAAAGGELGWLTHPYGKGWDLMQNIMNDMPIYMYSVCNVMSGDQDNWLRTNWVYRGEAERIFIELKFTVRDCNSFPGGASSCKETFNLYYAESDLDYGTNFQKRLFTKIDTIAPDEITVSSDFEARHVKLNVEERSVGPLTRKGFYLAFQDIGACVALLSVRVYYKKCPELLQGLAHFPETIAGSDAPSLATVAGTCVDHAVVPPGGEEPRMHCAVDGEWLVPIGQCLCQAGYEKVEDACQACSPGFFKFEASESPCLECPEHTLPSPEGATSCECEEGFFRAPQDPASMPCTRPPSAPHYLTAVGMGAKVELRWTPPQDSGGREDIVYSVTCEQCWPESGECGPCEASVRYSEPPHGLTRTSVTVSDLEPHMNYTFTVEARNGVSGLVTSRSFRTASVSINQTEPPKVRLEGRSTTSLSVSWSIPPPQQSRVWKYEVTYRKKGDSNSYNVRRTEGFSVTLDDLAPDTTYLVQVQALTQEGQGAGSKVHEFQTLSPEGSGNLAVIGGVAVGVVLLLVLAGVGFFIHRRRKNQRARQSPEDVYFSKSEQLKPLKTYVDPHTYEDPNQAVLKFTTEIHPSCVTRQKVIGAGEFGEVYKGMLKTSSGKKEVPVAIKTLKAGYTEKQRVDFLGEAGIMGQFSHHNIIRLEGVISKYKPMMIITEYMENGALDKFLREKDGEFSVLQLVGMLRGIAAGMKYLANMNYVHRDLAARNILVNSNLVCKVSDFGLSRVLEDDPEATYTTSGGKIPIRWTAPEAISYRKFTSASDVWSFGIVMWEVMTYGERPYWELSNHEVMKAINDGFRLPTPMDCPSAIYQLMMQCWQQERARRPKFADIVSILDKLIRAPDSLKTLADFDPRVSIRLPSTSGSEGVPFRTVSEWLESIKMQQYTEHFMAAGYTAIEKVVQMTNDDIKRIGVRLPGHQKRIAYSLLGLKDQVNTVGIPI
Chain of MAP kinase-activated protein kinase 2 (Homo sapiens) (P49137 whole entry, looked up): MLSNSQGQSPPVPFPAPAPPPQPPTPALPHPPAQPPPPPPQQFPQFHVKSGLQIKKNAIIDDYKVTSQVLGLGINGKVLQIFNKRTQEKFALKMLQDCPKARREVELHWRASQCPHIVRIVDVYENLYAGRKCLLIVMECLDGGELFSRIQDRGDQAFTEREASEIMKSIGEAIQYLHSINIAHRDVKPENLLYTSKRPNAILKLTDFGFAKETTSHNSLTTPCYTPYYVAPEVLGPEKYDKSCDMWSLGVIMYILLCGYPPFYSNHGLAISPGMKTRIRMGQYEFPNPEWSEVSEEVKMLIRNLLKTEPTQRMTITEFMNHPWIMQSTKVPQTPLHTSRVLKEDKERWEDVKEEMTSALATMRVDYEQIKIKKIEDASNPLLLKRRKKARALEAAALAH

In assay [1], `Cc1cc(I)ccc1Nc1c(C(=O)O)ccc(F)c1F` gave an IC50 of 0.011 µM.

For the compound `O=C(O)c1ccc(CO/N=C/c2cc(C(=O)NOCCO)c(Nc3ccc(I)cc3F)c(F)c2F)o1`, the inhibition in assay [2] was 28%; in [3], 0%; in assay [4] it was 27%; in [5] it was 28%; in assay [6] it was 36%; in assay [7] it was 19%. Further, the inhibition came out at 60% in [8], 20% in assay [9], 22% at Ephrin type-A receptor 2 [10] and 21% in [11].

On to `O=C(N/N=C/c1cc(C(=O)O)c(Nc2ccc(I)cc2F)c(F)c1F)c1ccc(CO)o1`, for which the IC50 is over 30 µM in assay [12]; 3 µM in assay [13]; 3 µM on Ephrin type-A receptor 2 [14]; 5 µM in assay [15]; 0.1 µM in assay [16]; over 30 µM in [17]. Also, the IC50 turned out to be 15 µM in assay [18]; 0.3 µM in [19]; 4 µM in assay [20]; 3 µM at Aurora kinase A; 2 µM in assay [21].

On to `O=C(O)CCCO/N=C/c1cc(C(=O)NOCCO)c(Nc2ccc(I)cc2F)c(F)c1F`, for which the inhibition in [2] stood at 18%; in [3], 1%; in assay [4], 25%; in assay [5], 33%; in assay [6] it was 22%; in assay [7] it was 4%. The inhibition in assay [8] amounted to 39%; in [9] it was 25%; at Ephrin type-A receptor 2 [10], 37%; in assay [11] it was 29%.

`COCCCNC(=O)N/N=C/c1cc(C(=O)NOCCO)c(Nc2ccc(I)cc2F)c(F)c1F`: the inhibition turned out to be 1% in assay [2]; 0% in assay [3]; 10% in assay [4]; 0% in assay [5]; 16% in assay [6]; 31% in assay [7]. Besides, the inhibition is 0% in [8], 0% in [9], 7% at Ephrin type-A receptor 2 [10] and 0% in assay [11].

Take `NC(=O)C[C@H](N)C(=O)NCc1cc(C(=O)O)c(Nc2ccc(I)cc2F)c(F)c1F`: the IC50 in [12] is 2 µM; in assay [22] it was over 30 µM; in [13], over 30 µM; at Ephrin type-A receptor 2 [14], over 30 µM; in assay [15], over 30 µM; in assay [23], over 30 µM. Also, the IC50 in assay [16] is 4 µM; in [17], 6 µM; in [18] it was over 30 µM; in assay [19], over 30 µM; in assay [20] it was over 30 µM; at Aurora kinase A, 2 µM. The compound further showed an IC50 in [21] of over 30 µM.

For the compound `O=C(NOCCO)c1ccc(F)c(F)c1Nc1ccc(I)cc1F`, the inhibition in assay [2] was 9%; in [3] it was 14%; in [4], 9%; in assay [5], 10%; in assay [6], 0%; in [7], 5%. Moreover, the inhibition in assay [8] was 0%; in assay [9], 2%; on Ephrin type-A receptor 2 [10] it was 9%; in [11] it was 11%.

As for `O=C(NOCCO)c1cc(/C=N/OCCO)c(F)c(F)c1Nc1ccc(I)cc1F`, the inhibition in assay [2] turned out to be 2%; in [3] it was 0%; in assay [4], 1%; in assay [5] it was 0%; in assay [6], 5%; in assay [7], 1%. The inhibition in assay [8] was found to be 0%; in assay [9] it was 0%; at Ephrin type-A receptor 2 [10] it was 9%; in [11], 5%.

As to `O=C(CS(=O)(=O)c1ccc(Cl)cc1)N/N=C/c1cc(C(=O)O)c(Nc2ccc(I)cc2F)c(F)c1F`, the IC50 was over 30 µM in assay [12]; over 30 µM in [22]; over 30 µM in assay [13]; over 30 µM at Ephrin type-A receptor 2 [14]; 10 µM in assay [15]; 3 µM in assay [16]. The IC50 is 3 µM in assay [18], 4 µM in assay [19], 4 µM at Aurora kinase A and over 30 µM in assay [21].

For `O=C(O)c1ccc(F)c(F)c1Nc1ccc(I)cc1Cl` [ZAPNOMETINIB], the IC50 in assay [1] was 0.00573 µM.

On to `CS(=O)(=O)c1ccc(CNCc2cc(C(=O)O)c(Nc3ccc(I)cc3F)c(F)c2F)cc1`, for which the IC50 in [12] was over 30 µM; in [22], over 30 µM; in assay [13], 18 µM; on Ephrin type-A receptor 2 [14] it was over 30 µM; in assay [15], over 30 µM; in assay [23], over 30 µM. Moreover, the IC50 was over 30 µM in assay [16]; over 30 µM in assay [18]; over 30 µM in assay [19]; 5 µM in assay [20]; 1 µM at Aurora kinase A; over 30 µM in assay [21].

Turning to `O=C(NOCCO)c1cc(COCCO)c(F)c(F)c1Nc1ccc(I)cc1F`, the inhibition in assay [2] is 5%; in assay [3], 27%; in assay [4], 0%; in assay [5], 22%; in [6], 25%; in assay [7], 5%. Further, the inhibition was determined as 0% in [8], 13% in [9], 13% at Ephrin type-A receptor 2 [10] and 2% in assay [11].

(Values after ChEMBL document CHEMBL1139272, “Beyond the MEK-pocket: can current MEK kinase inhibitors be utilized to synthesize novel type III NCKIs? Does the MEK-pocket exist in kinases other than MEK?” (Bioorg Med Chem Lett, 2009).)
